These results are taken from ChEMBL document CHEMBL1641539 (Bioorg Med Chem Lett, 2011).

Experiment [1] relates to Epidermal growth factor receptor (Homo sapiens), P00533 [L861Q]. The experiment in a line: Inhibition of human EGFR L861Q mutant at 10 uM after 60 mins by TR-FRET assay. In kind it is protein assay. The conditions noted are these: values are per cent of control.
Experiment [2] concerns the target Ephrin type-B receptor 2 (Homo sapiens) (UniProt P29323). As to the kind of experiment: Inhibition of human EphB2 at 10 uM after 60 mins by TR-FRET assay. To be noted: values are per cent of control. On the technique in general: In TR-FRET formats the signal depends on donor and acceptor labels being close together.
The target in experiment [3] is Receptor tyrosine-protein kinase erbB-4 (Homo sapiens) (UniProt Q15303). The experiment in a line: Inhibition of human ErbB4 at 10 uM after 60 mins by TR-FRET assay. To be noted: values are per cent of control.
The target of experiment [4] is Serine/threonine-protein kinase mTOR (Homo sapiens) (UniProt P42345). The experiment in a line: Inhibition of human mTOR at 10 uM after 60 mins by TR-FRET assay. The conditions noted are these: values are per cent of control.
Experiment [5] concerns the target Serine/threonine-protein kinase PLK2 (Homo sapiens) (UniProt Q9NYY3). The experiment in a line: Inhibition of human Snk at 10 uM after 60 mins by TR-FRET assay. To be noted: values are per cent of control.
In experiment [6] the target is Tyrosine-protein kinase Lyn (Mus musculus) (UniProt P25911). As to the kind of experiment: Inhibition of mouse Lyn at 10 uM after 60 mins by TR-FRET assay; values are per cent of control.
The target of experiment [7] is Dual specificity mitogen-activated protein kinase kinase 6 (Homo sapiens) (UniProt P52564). As to the kind of experiment: Inhibition of human MKK6 at 10 uM after 60 mins by TR-FRET assay; values are per cent of control.
Chain of Dual specificity mitogen-activated protein kinase kinase 6 (Homo sapiens) (P52564 whole entry): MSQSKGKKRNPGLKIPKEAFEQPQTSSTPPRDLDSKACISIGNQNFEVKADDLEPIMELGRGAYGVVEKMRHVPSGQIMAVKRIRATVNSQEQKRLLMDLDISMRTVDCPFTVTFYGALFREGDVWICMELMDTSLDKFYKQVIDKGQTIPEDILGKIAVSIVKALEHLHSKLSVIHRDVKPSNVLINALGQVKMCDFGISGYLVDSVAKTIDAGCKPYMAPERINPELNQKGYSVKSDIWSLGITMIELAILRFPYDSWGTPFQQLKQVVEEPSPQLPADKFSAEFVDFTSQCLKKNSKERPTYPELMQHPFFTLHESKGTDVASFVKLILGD
The target in experiment [8] is Serine/threonine-protein kinase Nek3 (Homo sapiens) (UniProt P51956). The experiment in a line: Inhibition of human NEK3 at 10 uM after 60 mins by TR-FRET assay; values are per cent of control.
Chain of Serine/threonine-protein kinase Nek3 (Homo sapiens) (P51956 whole entry): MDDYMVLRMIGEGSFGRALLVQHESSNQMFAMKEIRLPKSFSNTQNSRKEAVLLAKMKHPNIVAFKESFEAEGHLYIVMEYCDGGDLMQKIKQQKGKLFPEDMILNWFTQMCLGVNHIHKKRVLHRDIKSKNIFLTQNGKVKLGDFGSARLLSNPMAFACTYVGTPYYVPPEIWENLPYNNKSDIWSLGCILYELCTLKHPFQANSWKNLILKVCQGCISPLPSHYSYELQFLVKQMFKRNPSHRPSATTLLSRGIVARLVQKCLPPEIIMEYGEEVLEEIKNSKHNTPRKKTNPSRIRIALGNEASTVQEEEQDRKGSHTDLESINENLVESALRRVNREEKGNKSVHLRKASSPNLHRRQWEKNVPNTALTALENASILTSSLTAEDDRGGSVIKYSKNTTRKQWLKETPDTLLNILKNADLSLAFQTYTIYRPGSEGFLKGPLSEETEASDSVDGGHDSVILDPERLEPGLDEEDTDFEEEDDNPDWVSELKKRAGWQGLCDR
Experiment [9] has as its target Serine/threonine-protein kinase Sgk3 (Homo sapiens) (UniProt Q96BR1). As to the kind of experiment: Inhibition of human SGK3 at 10 uM after 60 mins by TR-FRET assay; values are per cent of control.
Experiment [10] has as its target T1, Serine/threonine-protein kinase Chk1 (Homo sapiens) (UniProt O14757).
T1 sequence (whole entry): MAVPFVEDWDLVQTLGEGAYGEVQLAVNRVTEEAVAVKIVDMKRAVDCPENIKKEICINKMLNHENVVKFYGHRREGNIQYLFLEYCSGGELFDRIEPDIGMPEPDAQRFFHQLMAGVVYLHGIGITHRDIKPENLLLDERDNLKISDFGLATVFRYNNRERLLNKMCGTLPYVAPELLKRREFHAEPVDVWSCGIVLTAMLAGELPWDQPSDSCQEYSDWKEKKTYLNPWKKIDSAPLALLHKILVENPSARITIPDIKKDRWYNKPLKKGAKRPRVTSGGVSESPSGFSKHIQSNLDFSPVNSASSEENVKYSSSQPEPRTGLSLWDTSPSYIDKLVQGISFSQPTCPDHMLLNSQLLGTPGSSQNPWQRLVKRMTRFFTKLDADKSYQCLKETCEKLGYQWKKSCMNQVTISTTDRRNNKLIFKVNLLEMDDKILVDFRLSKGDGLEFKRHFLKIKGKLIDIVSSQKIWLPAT
The experiment in a line: Inhibition of human CHK1 at 10 uM after 60 mins by TR-FRET assay; values are per cent of control.

Experiment [11] has as its target cAMP-dependent protein kinase catalytic subunit PRKX (Homo sapiens) (UniProt P51817). The experiment in a line: Inhibition of human PrKX at 10 uM after 60 mins by TR-FRET assay; values are per cent of control.
Experiment [12] deals with Ephrin type-B receptor 3 (Homo sapiens) (UniProt P54753). As to the kind of experiment: Inhibition of human EphB3 at 10 uM after 60 mins by TR-FRET assay; values are per cent of control.
For experiment [13], the target named is SRSF protein kinase 1 (Homo sapiens) (UniProt Q96SB4). As to the kind of experiment: Inhibition of human SRPK1 at 10 uM after 60 mins by TR-FRET assay; values are per cent of control.
Experiment [14] concerns the target Serine/threonine-protein kinase BRSK2 (Homo sapiens) (UniProt Q8IWQ3). As to the kind of experiment: Inhibition of human BrSK2 at 10 uM after 60 mins by TR-FRET assay; values are per cent of control.
The target in experiment [15] is Calcium/calmodulin-dependent protein kinase type 1 (Homo sapiens) (UniProt Q14012). The experiment in a line: Inhibition of human CaMK1 at 10 uM after 60 mins by TR-FRET assay; values are per cent of control.
Chain of Calcium/calmodulin-dependent protein kinase type 1 (Homo sapiens) (Q14012 whole entry, looked up): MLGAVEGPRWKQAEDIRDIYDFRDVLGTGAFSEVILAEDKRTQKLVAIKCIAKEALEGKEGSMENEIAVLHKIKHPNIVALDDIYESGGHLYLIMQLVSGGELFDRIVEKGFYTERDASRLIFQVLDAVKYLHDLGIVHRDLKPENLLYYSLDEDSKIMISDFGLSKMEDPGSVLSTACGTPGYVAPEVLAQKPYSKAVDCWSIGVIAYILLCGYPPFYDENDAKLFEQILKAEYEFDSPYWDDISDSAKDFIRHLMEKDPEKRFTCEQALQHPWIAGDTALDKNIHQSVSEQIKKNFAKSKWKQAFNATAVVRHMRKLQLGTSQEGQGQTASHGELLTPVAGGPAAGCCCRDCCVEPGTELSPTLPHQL
Experiment [16] deals with Casein kinase II subunit alpha' (Homo sapiens) (UniProt P19784). The experiment in a line: Inhibition of human CK2a2 at 10 uM after 60 mins by TR-FRET assay; values are per cent of control.
Experiment [17] addresses Eukaryotic elongation factor 2 kinase (Homo sapiens) (UniProt O00418). The experiment in a line: Inhibition of human eEF-2K at 10 uM after 60 mins by TR-FRET assay; values are per cent of control.
In experiment [18] the target is Glycogen synthase kinase-3 beta (Homo sapiens) (UniProt P49841). The experiment in a line: Inhibition of human GSK3-beta at 10 uM after 60 mins by TR-FRET assay; values are per cent of control.
In experiment [19] the target is Platelet-derived growth factor receptor alpha (Homo sapiens) (UniProt P16234). As to the kind of experiment: Inhibition of human PDGFRalpha at 10 uM after 60 mins by TR-FRET assay; values are per cent of control.
Chain of Platelet-derived growth factor receptor alpha (Homo sapiens) (P16234 whole entry): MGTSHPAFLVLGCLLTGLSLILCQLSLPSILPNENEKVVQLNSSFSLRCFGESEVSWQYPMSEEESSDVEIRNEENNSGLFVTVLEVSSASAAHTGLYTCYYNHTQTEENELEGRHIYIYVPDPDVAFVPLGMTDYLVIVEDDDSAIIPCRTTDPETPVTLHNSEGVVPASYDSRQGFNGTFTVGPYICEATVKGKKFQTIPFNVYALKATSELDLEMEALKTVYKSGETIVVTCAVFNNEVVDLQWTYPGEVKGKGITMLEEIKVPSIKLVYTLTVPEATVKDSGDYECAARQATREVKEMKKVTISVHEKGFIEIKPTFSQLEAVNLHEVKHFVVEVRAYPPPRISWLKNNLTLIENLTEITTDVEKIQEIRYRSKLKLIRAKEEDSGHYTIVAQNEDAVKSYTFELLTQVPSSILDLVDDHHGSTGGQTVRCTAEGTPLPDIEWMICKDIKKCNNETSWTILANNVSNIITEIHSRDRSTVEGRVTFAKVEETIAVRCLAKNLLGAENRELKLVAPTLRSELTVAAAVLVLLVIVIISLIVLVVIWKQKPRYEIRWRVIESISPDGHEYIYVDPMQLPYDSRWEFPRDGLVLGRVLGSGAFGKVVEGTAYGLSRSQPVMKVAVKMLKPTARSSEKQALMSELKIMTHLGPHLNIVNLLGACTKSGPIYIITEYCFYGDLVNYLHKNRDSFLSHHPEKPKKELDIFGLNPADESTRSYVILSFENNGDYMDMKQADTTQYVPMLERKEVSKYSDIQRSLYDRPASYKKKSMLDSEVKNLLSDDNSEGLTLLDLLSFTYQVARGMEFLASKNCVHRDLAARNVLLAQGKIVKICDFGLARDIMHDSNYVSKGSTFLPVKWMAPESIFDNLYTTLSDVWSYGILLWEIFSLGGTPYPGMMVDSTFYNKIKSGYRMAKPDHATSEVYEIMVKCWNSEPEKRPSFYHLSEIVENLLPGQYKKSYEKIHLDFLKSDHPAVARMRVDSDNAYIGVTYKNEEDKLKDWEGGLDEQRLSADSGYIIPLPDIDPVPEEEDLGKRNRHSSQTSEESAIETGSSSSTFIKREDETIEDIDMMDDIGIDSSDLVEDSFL
Experiment [20] has as its target Cyclin-dependent kinase 2/cyclin A (Homo sapiens) (UniProt P24941+P20248+P78396). The experiment in a line: Inhibition of human CDK2/cyclinA at 10 uM after 60 mins by TR-FRET assay; values are per cent of control.
Experiment [21] has as its target Cyclin-dependent kinase 2/cyclin E (Homo sapiens) (UniProt P24864+P24941+O96020). As to the kind of experiment: Inhibition of human CDK2/cyclinE at 10 uM after 60 mins by TR-FRET assay; values are per cent of control.
For experiment [22], the system named is Tyrosine-protein kinase BTK (Homo sapiens), Q06187 [R28H]. The experiment in a line: Inhibition of human BTK R28H mutant at 10 uM after 60 mins by TR-FRET assay; values are per cent of control.
Chain of Tyrosine-protein kinase BTK (Homo sapiens), Q06187 [R28H] (Q06187 whole entry R28H): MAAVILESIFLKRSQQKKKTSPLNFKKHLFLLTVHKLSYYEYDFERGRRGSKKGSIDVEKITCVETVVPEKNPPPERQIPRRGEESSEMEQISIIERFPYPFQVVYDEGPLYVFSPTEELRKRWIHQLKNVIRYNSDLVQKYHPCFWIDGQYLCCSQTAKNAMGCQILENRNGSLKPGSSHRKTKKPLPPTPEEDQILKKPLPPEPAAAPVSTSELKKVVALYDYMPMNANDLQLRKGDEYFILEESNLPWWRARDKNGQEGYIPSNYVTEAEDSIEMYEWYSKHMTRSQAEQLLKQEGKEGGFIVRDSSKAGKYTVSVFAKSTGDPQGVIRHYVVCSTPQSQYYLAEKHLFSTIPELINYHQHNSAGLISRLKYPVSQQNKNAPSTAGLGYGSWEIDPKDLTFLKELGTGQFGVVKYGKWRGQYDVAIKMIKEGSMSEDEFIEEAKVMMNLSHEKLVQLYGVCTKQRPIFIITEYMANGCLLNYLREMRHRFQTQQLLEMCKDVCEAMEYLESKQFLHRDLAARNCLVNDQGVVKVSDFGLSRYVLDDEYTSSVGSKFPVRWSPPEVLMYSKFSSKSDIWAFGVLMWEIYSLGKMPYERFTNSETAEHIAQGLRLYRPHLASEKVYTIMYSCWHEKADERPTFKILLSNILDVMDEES
Experiment [23] has as its system Serine/threonine-protein kinase Chk2 (Homo sapiens), O96017 [I157T]. As to the kind of experiment: Inhibition of human CHK2 I157T mutant at 10 uM after 60 mins by TR-FRET assay; values are per cent of control.
Experiment [24] concerns Mast/stem cell growth factor receptor Kit (Homo sapiens), P10721 [V560G]. The experiment in a line: Inhibition of human c-Kit V560G mutant at 10 uM after 60 mins by TR-FRET assay; values are per cent of control.

Chain of Eukaryotic elongation factor 2 kinase (Homo sapiens) (O00418 whole entry): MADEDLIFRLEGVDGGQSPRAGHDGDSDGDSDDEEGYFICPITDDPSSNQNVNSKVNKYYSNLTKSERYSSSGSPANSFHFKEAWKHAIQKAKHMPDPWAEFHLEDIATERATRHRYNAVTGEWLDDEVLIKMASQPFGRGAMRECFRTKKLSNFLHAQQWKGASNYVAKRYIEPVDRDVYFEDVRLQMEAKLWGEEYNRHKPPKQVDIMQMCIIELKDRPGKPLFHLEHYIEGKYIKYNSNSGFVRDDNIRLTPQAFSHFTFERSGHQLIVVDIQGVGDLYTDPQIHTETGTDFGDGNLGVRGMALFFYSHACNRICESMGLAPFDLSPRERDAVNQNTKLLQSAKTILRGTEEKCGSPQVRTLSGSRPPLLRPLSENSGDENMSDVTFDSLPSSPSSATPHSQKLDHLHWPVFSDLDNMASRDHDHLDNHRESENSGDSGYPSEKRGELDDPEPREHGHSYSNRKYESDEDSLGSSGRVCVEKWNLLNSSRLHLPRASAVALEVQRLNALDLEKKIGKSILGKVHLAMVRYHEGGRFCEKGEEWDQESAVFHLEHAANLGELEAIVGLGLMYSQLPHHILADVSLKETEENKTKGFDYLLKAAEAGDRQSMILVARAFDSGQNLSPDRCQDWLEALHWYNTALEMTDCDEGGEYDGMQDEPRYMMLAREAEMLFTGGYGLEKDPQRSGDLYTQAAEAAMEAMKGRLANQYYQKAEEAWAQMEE
Chain of Serine/threonine-protein kinase BRSK2 (Homo sapiens) (Q8IWQ3 whole entry): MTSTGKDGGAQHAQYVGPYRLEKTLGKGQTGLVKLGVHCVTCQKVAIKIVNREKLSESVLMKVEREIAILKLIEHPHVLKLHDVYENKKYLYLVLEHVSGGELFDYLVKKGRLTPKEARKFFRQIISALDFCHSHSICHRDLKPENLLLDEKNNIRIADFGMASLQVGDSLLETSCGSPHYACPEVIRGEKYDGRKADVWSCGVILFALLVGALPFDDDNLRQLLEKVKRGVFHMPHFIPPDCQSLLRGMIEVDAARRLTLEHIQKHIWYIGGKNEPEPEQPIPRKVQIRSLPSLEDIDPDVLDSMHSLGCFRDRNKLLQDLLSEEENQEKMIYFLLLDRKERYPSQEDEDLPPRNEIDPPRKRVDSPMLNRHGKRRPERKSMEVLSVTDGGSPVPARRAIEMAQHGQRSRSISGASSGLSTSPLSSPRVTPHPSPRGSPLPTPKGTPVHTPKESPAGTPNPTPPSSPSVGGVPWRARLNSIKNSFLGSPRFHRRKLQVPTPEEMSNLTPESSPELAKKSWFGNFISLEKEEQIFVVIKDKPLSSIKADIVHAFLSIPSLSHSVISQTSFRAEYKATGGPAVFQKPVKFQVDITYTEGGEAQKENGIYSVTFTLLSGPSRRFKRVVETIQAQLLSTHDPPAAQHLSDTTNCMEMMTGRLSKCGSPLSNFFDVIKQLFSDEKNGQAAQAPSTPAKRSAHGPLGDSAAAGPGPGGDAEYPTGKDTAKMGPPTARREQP
Chain of Serine/threonine-protein kinase Chk2 (Homo sapiens), O96017 [I157T] (O96017 whole entry I157T): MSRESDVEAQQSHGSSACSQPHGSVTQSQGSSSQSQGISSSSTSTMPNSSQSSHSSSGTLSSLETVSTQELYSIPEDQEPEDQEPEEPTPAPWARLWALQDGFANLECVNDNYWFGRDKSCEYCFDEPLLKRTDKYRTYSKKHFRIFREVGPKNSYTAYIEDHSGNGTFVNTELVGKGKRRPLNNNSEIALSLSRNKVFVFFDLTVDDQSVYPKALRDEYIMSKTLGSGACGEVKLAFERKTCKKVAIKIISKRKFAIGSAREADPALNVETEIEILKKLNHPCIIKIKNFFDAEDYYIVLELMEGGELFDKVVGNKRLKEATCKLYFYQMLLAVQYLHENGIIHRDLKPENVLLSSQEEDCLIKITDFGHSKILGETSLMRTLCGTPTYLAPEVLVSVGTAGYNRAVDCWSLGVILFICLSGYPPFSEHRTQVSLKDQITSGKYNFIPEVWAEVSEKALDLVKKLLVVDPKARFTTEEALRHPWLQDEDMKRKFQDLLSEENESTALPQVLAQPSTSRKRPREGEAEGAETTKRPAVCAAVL

As for `S=c1[nH]nc(-c2ccncc2)n1-c1ccc2ccccc2c1`, the residual activity worked out at 64% in experiment [1]; 105% in experiment [2]; 99% in experiment [3]; 98% in [4]; 113% in experiment [5]; 100% in experiment [6]. Moreover, the residual activity in experiment [7] came out at 85%; in [8], 118%; in [9], 102%; in [10], 113%; in experiment [11] it was 134%; in experiment [12] it was 102%. Besides, the residual activity in experiment [13] came out at 93%; in [14] it was 103%; in experiment [15] it was 105%; in experiment [16], 108%; in experiment [17], 105%; in [18], 90%. Also, the residual activity in [19] was found to be 99%; in experiment [20], 114%; in experiment [21], 108%; in experiment [22], 113%; in experiment [23] it was 108%; in experiment [24], 102%.
